Experimental data published in patent publication US20040110803A1, “Methods and compositions for the use of D-malic acid to decrease serum triglyceride, cholesterol and lipoprotein levels” (priority 2002, published 2004).
Structures can show the parent of a compound that is named as a salt. Where two headings read alike, the source gives them in different places. One block for each compound: values may come before it.

Columns and labels:
[1] = tested on: Zucker fa/fa rat; assay: Experiment II: L-, D,L- and D-malic acid in drinking water, food/water consumption, body weight, serum lipid/liver profile; settings: for linear slope of body weight versus serum triglycerides, vs control and L-malic acid treated rats: FIG. 3, p≦0.01; for water consumption, means between groups: L-malic acid vs control at 10 and 11 weeks of treatment; for effect on serum lipid levels (hypolipidemic effect): oral, Zucker obese rat, conclusion in words
Procedure: (§1) In experiment II, forty male Zucker fa/fa rats at five to seven weeks of age began treatment similarly to the rats in Experiment I. At about 5 weeks of age, whole blood was collected from the tail caudal vein of each rat and lipid profiles were measured on the serum.
(§2) Food and water consumption was measured daily for each cage of two rats. Body weight was measured and tail caudal vein blood samples were collected at 6, 8, 10, 12, 14, 16, and 18 and 24 weeks of age. Rats received their oral treatment of malic acid isomers prior to the onset of hyperlipidemia and continued for 16 weeks. The lipid/liver profile was measured on the serum of each rate with the determination of serum triglycerides, total cholesterol, HDL, glucose, AST and ALT with the same procedures of Experiment I.
(§3) Experiment II. This follow-up experiment doubled the number of rats per group (ten/group) and included treatment groups to distinguish the roles of the D isomer and the L isomer of malic acid (Control, L-Malic, D,L-Malic, and D-Malic Acid).

[2] = tested on: liver mitochondria; settings: for concentrations at which not metabolized by mitochondria: oxygen consumption, FIG. 5
Procedure: To determine the effect of D-malic acid on hepatic mitochondria, mitochondria from the Sprague Dawley rat used for isoenzyme studies were prepared according to the method of Johnson and Lardy (1967). The […] pellet was resuspended in cold sucrose buffer and recentrifuged at 600×g. This supernatant was mixed with the original 600×g supernatant. The 10,000×g mitochondria pellet was suspended in 5 mL of sucrose buffer. […] Consumption of oxygen was represented as percent of oxygen saturation.

[3] = tested on: Zucker fa/fa rat; assay: Experiment I: body weight and serum analysis of Zucker fa/fa rats given D,L-malic acid, sodium salt in drinking water; format: in vivo; parameters: Serum T Chol / Serum HDL / Serum LDL / Serum VLDL / Serum Glucose: unit not given here; settings: for Body Wt. / Serum Glucose / Serum HDL / Serum T Chol / Serum Triglyceride / Serum BUN / Serum Creatine / Serum K+ / Serum Na+ / Serum ALT / Serum AST / Serum LDL / Serum VLDL: mean ± SEM; for Body Wt.: in g; for Serum BUN / Serum Creatine: in mg/dL (unit assumed); for Serum K+ / Serum Na+: in mmol/L (unit assumed); for Serum ALT / Serum AST: in U/L (unit assumed); for Serum VLDL: calculated
From the text: The Zucker fa/fa rat model was selected to test the effects of malic acid supplements to the diet. The Zucker fa/fa rat is a genetically obese rat associated to elevated leptin levels in the blood. Among humans and most animal models, leptin is known to […], leading to elevated caloric intake and obesity. Associated with the leptin production is an elevation in serum insulin (Giridharan 1998). Thus, obesity can arise from the increase food intake and/or the lipogenic effects of insulin on adipose tissue and liver.
Two separate experiments were conducted on the Zucker fa/fa rat. The first experiment served as a pilot study for the second. In Experiment I, ten male, 7-week-old Zucker fa/fa rats were divided into two parametric groups based upon the results of a clinical serum analysis for lipids, glucose, hepatic enzymes, and ions. […] The control group of five rats received only tap water. After 2, 4, 7, and 10 and 12 weeks of treatment, 1-2 mL whole blood was collect from each rat via the tail caudal vein and the serum retained for analysis. All serum analysis was conducted in the out-patient clinical laboratory of the University Hospital of the University of Alabama at Birmingham with a Synchron LX System. The following methods for each parameter are used in their automated clinical systems.

[4] = tested on: Zucker fa/fa rat; assay: as above; format: in vivo
[5] = tested on: Zucker fa/fa rat
Procedure: After eight weeks of treatment, Experiment I was concluded with all ten rats being anesthetized with pentobarbital (40 mg/kg, i.p). […] In addition to body weight, the heart, liver, epididymal fat and left kidney were weighed. The aorta and a portion of the medial lobe of the liver were fixed in buffered 10% formalin and prepared for paraffin embedding and sectioning for pathological analysis.

[6] = tested on: liver of Zucker fa/fa rat; assay: Experiment I: hepatic nucleotide analysis by HPLC of frozen-acid extracted liver; format: in vivo; settings: 12 weeks treatment
Procedure: After eight weeks of treatment, Experiment I was concluded with all ten rats being anesthetized with pentobarbital (40 mg/kg, i.p). Immediately prior to the rat's euthanasia, a portion of the medial lobe of the liver was weighed, immediately frozen, pulverized and extracted in 12% perchloric acid in dry ice for nucleotide analysis. The acid extracted tissue was thawed, neutralized in saturated potassium bicarbonate and centrifuged at 10,000×g for 15 minutes. The final supernatant was analyzed for nucleotides by HPLC according to the method of Jenkins, et al (1988).

[7] = tested on: Zucker fa/fa rat; settings: in vivo
Procedure: as §1, §2, §3

[8] = after 18 and 24 weeks of treatment, P≦0.01
[9] = after four and six weeks of treatment, but not beyond, P≦0.05
[10] = −2 weeks Treatment (before dosing)

SMILES: O=C(O)C[C@@H](O)C(=O)O [D-malic acid, D-malic acid, sodium salt]
- linear slope of body weight versus serum triglycerides, vs control and L-malic acid treated rats [1]: differs significantly
- water consumption, means between groups [1]: did not differ
- mean serum triglycerides compared to controls ([1]; after 12 weeks and beyond of treatment, P≦0.05): lowered
- mean serum triglycerides vs controls [1, 8]: decreased below controls
- effect on serum lipid levels (hypolipidemic effect) [1]: effective
- effect on the metabolism of L-malic acid by mitochondria ([2]; 20 umoles/5 mL D-malic acid): inhibited
- transport of L-malic acid into the mitochondria ([2]; mitochondrial incubations): partially blocks
- concentrations at which not metabolized by mitochondria [2]: less than 40 umoles/5 mL
- concentrations at which not metabolized by mitochondria ([2]; converted): < 6.7 mM

- water consumption, means between groups [7]: did not differ
SMILES: O=C(O)CC(O)C(=O)O (racemic) [D,L-malic acid, D,L-malic acid, sodium salt]
- Body Wt. ([3]; 0 weeks Treatment (start of dosing)): 484 ± 10
- Serum Glucose ([3]; 2 weeks Treatment): 167 ± 14
- Serum HDL ([3]; 2 weeks Treatment): 92 ± 4
- Serum T Chol ([3]; 2 weeks Treatment): 96 ± 5
- Serum Triglyceride ([3]; 2 weeks Treatment): 358 ± 51 mg %
- Body Wt. ([3]; 2 weeks Treatment): 553 ± 14
- Serum BUN ([3]; 2 weeks Treatment): 13 ± 0.5
- Serum Creatine ([3]; 2 weeks Treatment): .42 ± .02
- Serum K+ ([3]; 2 weeks Treatment): 5.6 ± 0.3
- Serum Na+ ([3]; 2 weeks Treatment): 141 ± 0.6
- Serum Glucose ([3]; 4 weeks Treatment): 156 ± 12
- Serum HDL ([3]; 4 weeks Treatment): 87 ± 3
- Serum T Chol ([3]; 4 weeks Treatment): 99 ± 5
- Serum Triglyceride ([3]; 4 weeks Treatment): 522 ± 82 mg %
- Serum ALT ([3]; 4 weeks Treatment): 64 ± 4
- Serum AST ([3]; 4 weeks Treatment): 145 ± 13
- Body Wt. ([3]; 4 weeks Treatment): 592 ± 15
- Serum BUN ([3]; 4 weeks Treatment): 12 ± 0.6
- Serum Creatine ([3]; 4 weeks Treatment): .38 ± .02
- Serum K+ ([3]; 4 weeks Treatment): 5.8 ± 0.1
- Serum Na+ ([3]; 4 weeks Treatment): 143 ± 1.1
- Serum Glucose ([3]; 7 weeks Treatment): 173 ± 10
- Serum HDL ([3]; 7 weeks Treatment): 110 ± 5
- Serum T Chol ([3]; 7 weeks Treatment): 120 ± 8
- Serum Triglyceride ([3]; 7 weeks Treatment): 422 ± 44 mg %
- Serum ALT ([3]; 7 weeks Treatment): 68 ± 2
- Serum AST ([3]; 7 weeks Treatment): 126 ± 6
- Body Wt. ([3]; 7 weeks Treatment): 660 ± 19
- Serum BUN ([3]; 7 weeks Treatment): 11 ± 0.3
- Serum Creatine ([3]; 7 weeks Treatment): .34 ± .02
- Serum K+ ([3]; 7 weeks Treatment): 5.4 ± 0.2
- Serum Na+ ([3]; 7 weeks Treatment): 144 ± 0.4
- Serum Glucose ([3]; 10 weeks Treatment): 141 ± 10
- Serum HDL ([3]; 10 weeks Treatment): 107 ± 10
- Serum LDL ([3]; 10 weeks Treatment): 1.4 ± 1.4
- Serum T Chol ([3]; 10 weeks Treatment): 123 ± 14
- Serum Triglyceride ([3]; 10 weeks Treatment): 430 ± 39 mg %
- Serum VLDL ([3]; 10 weeks Treatment): 4 ± 4
- Serum ALT ([3]; 10 weeks Treatment): 69 ± 4
- Serum AST ([3]; 10 weeks Treatment): 94 ± 2
- Body Wt. ([3]; 10 weeks Treatment): 708 ± 26
- Serum BUN ([3]; 10 weeks Treatment): 16 ± 1.2
- Serum Creatine ([3]; 10 weeks Treatment): .32 ± .02
- Serum K+ ([3]; 10 weeks Treatment): 6.6 ± 0.2
- Serum Na+ ([3]; 10 weeks Treatment): 143 ± 0.8
- Serum Glucose ([3]; 12 weeks Treatment): 153 ± 9
- Serum HDL ([3]; 12 weeks Treatment): 117 ± 9
- Serum LDL ([3]; 12 weeks Treatment): 6 ± 0.4
- Serum T Chol ([3]; 12 weeks Treatment): 137 ± 14
- Serum Triglyceride ([3]; 12 weeks Treatment): 437 ± 35 mg %
- Serum VLDL ([3]; 12 weeks Treatment): 14 ± 5
- Serum ALT ([3]; 12 weeks Treatment): 71 ± 6
- Serum AST ([3]; 12 weeks Treatment): 115 ± 16
- Body Wt. ([3]; 12 weeks Treatment): 722 ± 30
- Serum Creatine ([3]; 12 weeks Treatment): .34 ± .02
- Serum K+ ([3]; 12 weeks Treatment): 6.4 ± 0.1
- Serum Na+ ([3]; 12 weeks Treatment): 141 ± 0.6
- serum ALT vs control [3, 9]: significantly lowered
- serum glucose, sodium, or potassium, HCO3, chloride, and BUN levels vs control ([3]; in words): no detectable affect
- serum triglyceride levels vs control ([3]; ten and twelve weeks of treatment, P≦0.001): differences were more remarkable
- effect on body weight ([3]; vs control, in words): no effect
- Serum Glucose [3, 10]: 147 ± 2
- Serum HDL [3, 10]: 90 ± 3
- Serum T Chol [3, 10]: 91 ± 4
- Serum Triglyceride [3, 10]: 387 ± 41 mg %
- Body Wt. [3, 10]: 359 ± 6
- Serum BUN [3, 10]: 21 ± 0.9
- Serum Creatine [3, 10]: 0.46 ± 0.02
- Serum K+ [3, 10]: 6.1 ± 0.2
- Serum Na+ [3, 10]: 147 ± 0.2
- serum HDL cholesterol vs control ([4]; after eight weeks of treatment, P≦0.05): significant decrease
- serum AST vs control [4, 9]: significantly lowered
- serum total cholesterol vs control ([4]; after six weeks of treatment, P≦0.05): significant decrease
- serum triglyceride levels vs control ([4]; two to eight weeks of treatment, P≦0.01): significantly decreased
- linear slope of body weight versus serum triglycerides, vs control and L-malic acid treated rats [1]: differs significantly
- mean serum triglycerides vs controls [1, 8]: decreased below controls
- effect on serum lipid levels (hypolipidemic effect) [1]: significant hypolipidemic effect
- histological examination of the aorta ([5]; 12 week (20 weeks of age)): no pathology associated with plaque formation
- Percent Fatty Deposition in Hepatocytes, Mean of 200 cells/rat ± SEM ([5]; 12 week treated, liver sections 8 um): 45.69 ± 0.62%
- Mean Organ Weights: Epididymal Fat ([5]; 12 week treated, ± SEM): 0.350 ± .050 gram
- percent of fatty inclusions in hepatocytes vs control ([5]; 200 hepatocytes, liver sections 8 um): no significant differences
- hepatic tissue NAD levels vs control [6]: elevated but not significantly
- hepatic tissue levels of NADP vs control [6]: significantly elevated
- mean hepatic purine nucleotides vs control [6]: No significant differences
- Mean Hepatic Purine Dinucleotide Levels: NAD ([6]; ± SEM): 350 ± 23 nmoles/gm tissue wet wt.
- Mean Hepatic Purine Nucleotides Level: ADP ([6]; ± SEM): 125 ± 7 nmoles/gm tissue wet wt.
- Mean Hepatic Purine Nucleotides Level: AMP ([6]; ± SEM): 168 ± 18 nmoles/gm tissue wet wt.
- Mean Hepatic Purine Nucleotides Level: ATP ([6]; ± SEM): 556 ± 35 nmoles/gm tissue wet wt.
- Mean Hepatic Purine Nucleotides Level: Adenosine ([6]; ± SEM): 65 nmoles/gm tissue wet wt.
- Mean Hepatic Purine Dinucleotide Levels: NADP ([6]; ± SEM, significantly different P ≦ 0.05): 61.7 ± 3.8 nmoles/gm tissue wet wt.

SMILES: O=C(O)C[C@H](O)C(=O)O [L-malic acid, L-malic acid, sodium salt, reference compound]
- food consumption (rat chow consumed/rat/day) vs control ([1]; 6 to 20 weeks of age): tended to eat more rat chow
- mean serum levels of triglycerides vs control ([1]; 8 to 24 weeks of age): no significant difference
- mean serum total cholesterol vs control ([1]; 8 to 24 weeks of age): no significant difference
- water consumption, means between groups ([1]; sodium salt): Significant differences
- mean serum triglycerides vs controls ([1]; after 24 weeks of age (18 weeks of treatment)): greater mean serum triglycerides than controls but not statistically significant
- mean serum glucose vs control ([1]; only weeks 8 and 16, P≦0.05): sporadically (only weeks 8 and 16) elevated
- effect on serum lipid levels (hypolipidemic effect) ([1]; listed as L-isomer of malic acid, sodium salt): no effect
